Among the data in PubChem BioAssay AID330 (DTP/NCI, 2004) are T/C values, retold here.

The subject of this assay is P388 leukemia ip, CD2F1 mice, survival T/C. Briefly: NCI In Vivo Anticancer Drug Screen. Data for tumor model P388 Leukemia (intraperitoneal) in CD2F1 (CDF1) mice. Conditions: endpoint: median survival time, higher = longer survival. In a few lines:
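Mice carrying the transplanted tumor received test compound or vehicle. Survival was recorded in each group, and the value is the treated-group measurement divided by that of the vehicle-treated control group.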

The mark [1] stands for this setting: dose: 50.0 mg/kg/injection, schedule: Q01DX005 (ip), vehicle: Klucel (hydroxypropylcellulose) (HPC).
[2] abbreviates: dose: 100.0 mg/kg/injection, schedule: Q01DX005 (ip), vehicle: Klucel (hydroxypropylcellulose) (HPC).
Where [3] appears, read: dose: 100.0 mg/kg/injection, schedule: Q01DX009 (ip), vehicle: saline.
[4] abbreviates: dose: 200.0 mg/kg/injection, schedule: Q01DX009 (ip), vehicle: saline.
Where [5] appears, read: dose: 50.0 mg/kg/injection, schedule: Q01DX009 (ip), vehicle: saline.
Setting [6] is: dose: 60.0 mg/kg/injection, schedule: Q01DX005 (ip), vehicle: saline with Tween-80.
Where [7] appears, read: dose: 120.0 mg/kg/injection, schedule: Q01DX005 (ip), vehicle: saline with Tween-80.
[8] abbreviates: dose: 240.0 mg/kg/injection, schedule: Q01DX005 (ip), vehicle: saline with Tween-80.

“And” between values parts separate entries of the source, which are not always exact repeats. Identical values can stand only once. Toxic doses and inconclusive results are not listed.

Consider `COc1cc(-c2ccc(NC(=O)CC(C)=O)c(OC)c2)ccc1NC(=O)CC(C)=O`, for which the T/C runs as follows: (dose: 100.0 mg/kg/injection, schedule: Q04DX003 (ip), vehicle: saline with Tween-80) 100 % of control; (dose: 200.0 mg/kg/injection, schedule: Q04DX003 (ip), vehicle: saline with Tween-80) 100 % of control; (dose: 400.0 mg/kg/injection, schedule: Q04DX003 (ip), vehicle: saline with Tween-80) 90 % of control.
For the compound `CC(=O)NNC(=O)CCCCCCC(=O)NNC(C)=O`, the T/C reads like this: under setting [1], 98 % of control; under setting [2], 98 % of control.
On to `C/C(=N/NC(=S)NNC(=S)N(C)c1ccccc1)c1nccc2ccccc12`, for which the T/C runs as follows: (dose: 50.0 mg/kg/injection, schedule: Q01DX005 (ip), vehicle: saline with Tween-80) 102 % of control; (dose: 100.0 mg/kg/injection, schedule: Q01DX005 (ip), vehicle: saline with Tween-80) 101 % of control; (dose: 200.0 mg/kg/injection, schedule: Q01DX005 (ip), vehicle: saline with Tween-80) 104 % of control.
Take `c1ccc2c(c1)ccc1ncc3ncccc3c12`: the T/C (dose: 100.0 mg/kg/injection, schedule: Q04DX002 (ip), vehicle: saline with Tween-80) is 98 % of control and the T/C (dose: 200.0 mg/kg/injection, schedule: Q04DX002 (ip), vehicle: saline with Tween-80) was 114 % of control.
In the case of `c1ccc(C23CC4CCCCC4CC2O3)cc1` (configuration not stated), the T/C is, setting by setting: (dose: 100.0 mg/kg/injection, schedule: Q04DX002 (ip), vehicle: Klucel (hydroxypropylcellulose) (HPC)) 98 % of control; (dose: 200.0 mg/kg/injection, schedule: Q04DX002 (ip), vehicle: Klucel (hydroxypropylcellulose) (HPC)) 111 % of control; (dose: 400.0 mg/kg/injection, schedule: Q04DX002 (ip), vehicle: Klucel (hydroxypropylcellulose) (HPC)) 104 % of control.
As for `CCOC(=O)/C=C(\C)NCCSSCCN/C(C)=C/C(=O)OCC`, the T/C was 100 % of control (dose: 50.0 mg/kg/injection, schedule: Q01DX009 (ip), vehicle: Klucel (hydroxypropylcellulose) (HPC)); 97 % of control (dose: 100.0 mg/kg/injection, schedule: Q01DX009 (ip), vehicle: Klucel (hydroxypropylcellulose) (HPC)); 90 % of control (dose: 200.0 mg/kg/injection, schedule: Q01DX009 (ip), vehicle: Klucel (hydroxypropylcellulose) (HPC)).
Regarding `CC1=CC(Cc2ccccc2)N(C)C(C(N)=O)C1` (configuration not stated), the T/C was 102 % of control under setting [1] and 101 % of control under setting [2].
Take `FC(F)(F)C(Cl)Br` (configuration not stated): the T/C is 109 % of control (dose: 25.0 mg/kg/injection, schedule: Q04DX003 (ip), vehicle: saline); 109 % of control (dose: 50.0 mg/kg/injection, schedule: Q04DX003 (ip), vehicle: saline); 100 % of control under setting [3]; 109 % of control (dose: 100.0 mg/kg/injection, schedule: Q04DX003 (ip), vehicle: saline); 90 % of control under setting [4]; 90 % of control (dose: 400.0 mg/kg/injection, schedule: Q01DX009 (ip), vehicle: saline).
Consider `COc1ccc2c(c1)CCC1C2=CCP1(C)=O` (configuration not stated), for which the T/C reads like this: (dose: 25.0 mg/kg/injection, schedule: Q01DX009 (ip), vehicle: saline) 97 % of control; under setting [5], 101 % of control; under setting [3], 93 % of control; under setting [4], 91 % of control.
As to `CC(=O)Nc1ccc(/C=N/NC(=O)CC2CCCCC2)cc1`, the T/C under setting [6] was 96 % of control, the T/C under setting [7] was 100 % of control and the T/C under setting [8] was 91 % of control.
Consider `O=C(CSc1nc(-c2ccccc2)c(-c2ccccc2)o1)N1CCCCC1`, for which the T/C was 93 % of control under setting [5], 110 % of control under setting [3] and 110 % of control under setting [4].
Consider `CCN=C1SC2C(=O)N(C)C(S1)C(=O)N2C`, for which the T/C is 100 % of control (dose: 6.25 mg/kg/injection, schedule: Q04DX002 (ip), vehicle: saline); 103 % of control (dose: 12.5 mg/kg/injection, schedule: Q04DX002 (ip), vehicle: saline); 105 % of control (dose: 25.0 mg/kg/injection, schedule: Q04DX002 (ip), vehicle: saline).
`O=C(O)c1cc2sccc2c(=O)[nH]1`: the T/C reads like this: (dose: 100.0 mg/kg/injection, schedule: Q04DX003 (ip), vehicle: Klucel (hydroxypropylcellulose) (HPC)) 102 % of control; (dose: 200.0 mg/kg/injection, schedule: Q04DX003 (ip), vehicle: Klucel (hydroxypropylcellulose) (HPC)) 113 % of control; (dose: 400.0 mg/kg/injection, schedule: Q04DX003 (ip), vehicle: Klucel (hydroxypropylcellulose) (HPC)) 103 % of control.
Consider `O=C(O)C(S(=O)(=O)O)S(=O)(=O)O`, for which the T/C (dose: 1.56 mg/kg/injection, schedule: Q01DX001 (ip), vehicle: saline with Tween-80) is 103 % of control; the T/C (dose: 3.13 mg/kg/injection, schedule: Q01DX001 (ip), vehicle: saline with Tween-80) was 100 % of control; the T/C (dose: 6.25 mg/kg/injection, schedule: Q01DX001 (ip), vehicle: saline with Tween-80) is 100 % of control.
With `OCc1ccn2c1C(O)CC2` (configuration not stated), the T/C runs as follows: (dose: 12.5 mg/kg/injection, schedule: Q01DX009 (ip), vehicle: saline) 124 % of control; under setting [5], 113 % of control; under setting [3], 201 % of control; under setting [4], 157 % of control.
Consider `CCOC(=O)C1=C(NC23CC4CC(CC(C4)C2)C3)OCC1=O`, for which the T/C by setting is: under setting [6], 107 % of control; under setting [7], 110 % of control.
Regarding `Clc1ccc(C[Se][Se]Cc2ccc(Cl)cc2)cc1`, the T/C is 109 % of control (dose: 6.25 mg/kg/injection, schedule: Q01DX009 (ip), vehicle: Klucel (hydroxypropylcellulose) (HPC)); 108 % of control (dose: 12.5 mg/kg/injection, schedule: Q01DX009 (ip), vehicle: Klucel (hydroxypropylcellulose) (HPC)); 101 % of control (dose: 25.0 mg/kg/injection, schedule: Q01DX009 (ip), vehicle: Klucel (hydroxypropylcellulose) (HPC)).
Turning to `O=[N+]([O-])c1ccc(N2c3ccccc3SC2c2ccco2)c([N+](=O)[O-])c1` (configuration not stated), the T/C is 102 % of control (dose: 1.5 mg/kg/injection, schedule: Q01DX005 (ip), vehicle: saline with Tween-80); 102 % of control (dose: 3.0 mg/kg/injection, schedule: Q01DX005 (ip), vehicle: saline with Tween-80); 91 % of control (dose: 6.0 mg/kg/injection, schedule: Q01DX005 (ip), vehicle: saline with Tween-80).
For the compound `NCCSCCN`, the T/C was 100 % of control under setting [5]; 99 % of control under setting [3]; 102 % of control (dose: 100.0 mg/kg/injection, schedule: Q03DX003 (ip), vehicle: saline); 105 % of control under setting [4]; 105 % of control (dose: 200.0 mg/kg/injection, schedule: Q03DX003 (ip), vehicle: saline); 92 % of control (dose: 400.0 mg/kg/injection, schedule: Q03DX003 (ip), vehicle: saline).
For `O=C1NCC(CCl)O1` (configuration not stated), the T/C runs as follows: (dose: 60.0 mg/kg/injection, schedule: Q01DX005 (ip), vehicle: saline) 100 % of control; (dose: 120.0 mg/kg/injection, schedule: Q01DX005 (ip), vehicle: saline) 101 % of control; (dose: 240.0 mg/kg/injection, schedule: Q01DX005 (ip), vehicle: saline) 102 % of control.
Regarding `Cc1nc2cc3c(=O)n(C)cnc3cc2n1Cc1ccccc1`, the T/C (dose: 12.5 mg/kg/injection, schedule: Q04DX002 (ip), vehicle: Klucel (hydroxypropylcellulose) (HPC)) was 104 % of control; the T/C (dose: 25.0 mg/kg/injection, schedule: Q04DX002 (ip), vehicle: Klucel (hydroxypropylcellulose) (HPC)) is 104 % of control; the T/C (dose: 50.0 mg/kg/injection, schedule: Q04DX002 (ip), vehicle: Klucel (hydroxypropylcellulose) (HPC)) was 107 % of control.
In the case of `O=c1c(N=Nc2ccccc2Cl)c(O)n(-c2ccccc2Cl)c(=S)n1-c1ccc(Cl)cc1`, the T/C (dose: 100.0 mg/kg/injection, schedule: Q01DX001 (ip), vehicle: Klucel (hydroxypropylcellulose) (HPC)) is 109 % of control; the T/C (dose: 200.0 mg/kg/injection, schedule: Q01DX001 (ip), vehicle: Klucel (hydroxypropylcellulose) (HPC)) was 104 % of control; the T/C (dose: 400.0 mg/kg/injection, schedule: Q01DX001 (ip), vehicle: Klucel (hydroxypropylcellulose) (HPC)) is 96 % of control.
For the compound `COC(=O)C1=C(\N2CCCC2)CC(C)(C)CC(=O)/C=C\1C(=O)OC`, the T/C by setting is: under setting [1], 92 % of control; under setting [2], 93 % of control; (dose: 200.0 mg/kg/injection, schedule: Q01DX005 (ip), vehicle: Klucel (hydroxypropylcellulose) (HPC)) 104 % of control.
For `CC(C)(C)c1cc(C(c2cc3c(cc2O)OCO3)N2CCOCC2)cc(C(C)(C)C)c1O` (configuration not stated), the T/C was 102 % of control and 111 % of control and 112 % of control under setting [6]; 105 % of control and 111 % of control and 115 % of control under setting [7]; 104 % of control under setting [8]; 123 % of control (dose: 480.0 mg/kg/injection, schedule: Q01DX005 (ip), vehicle: saline with Tween-80).
